Drawing on PubChem BioAssay AID1918943 (Molecular Pharmacology Branch, DTP, NCI, 2023), this text covers IC50 and viability, T/C for five molecules.

The structures appear in SMILES notation. “And” between values parts separate entries of the source, which are not always exact repeats. Equal values may be shown once.

A word on the IC50: it is the point on the concentration scale where inhibition reaches its midpoint. In general, viability, T/C refers to the result in the treated group divided by that in the control group, in per cent.

This assay relates to 855422-203-R-J1-PDC complex spheroid viability. Briefly: Anticancer human tumor 855422-203-R-J1-PDC patient-derived bladder carcinoma cell line growth inhibition. The note with it: for viability, T/C: stronger effect = lower value. In a few lines: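 Complex spheroids of tumor cells with HUVEC and human MSCs, exposed to iadademstat combined with other agents. Each agent tested in half-log steps from near clinical Cmax (else 10 microM top), DMSO ≤0.25%.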

Setting [1] is: curve of first compound, second compound 0.1 µM.
Where [2] appears, read: curve of first compound, second compound 0.316 µM.
[3] abbreviates: curve of first compound, second compound 1 µM.
Setting [4] is: curve of first compound, second compound 3.16 µM.
The mark [5] stands for this setting: curve of first compound, second compound 10 µM.
[6] abbreviates: second compound 0.1 µM, first compound 0.000949 µM.
[7] abbreviates: second compound 0.1 µM, first compound 0.003 µM.
Where [8] appears, read: second compound 0.1 µM, first compound 0.00949 µM.
Where [9] appears, read: second compound 0.1 µM, first compound 0.03 µM.
Where [10] appears, read: second compound 0.1 µM, first compound 0.0949 µM.
The mark [11] stands for this setting: second compound 0.1 µM, first compound 0.3 µM.
Setting [12] is: second compound 0.316 µM, first compound 0.000949 µM.
[13] abbreviates: second compound 0.316 µM, first compound 0.003 µM.
Where [14] appears, read: second compound 0.316 µM, first compound 0.00949 µM.
Setting [15] is: second compound 0.316 µM, first compound 0.03 µM.
[16] abbreviates: second compound 0.316 µM, first compound 0.0949 µM.
[17] abbreviates: second compound 0.316 µM, first compound 0.3 µM.
Setting [18] is: second compound 1 µM, first compound 0.000949 µM.
Where [19] appears, read: second compound 1 µM, first compound 0.003 µM.
The mark [20] stands for this setting: second compound 1 µM, first compound 0.00949 µM.
The mark [21] stands for this setting: second compound 1 µM, first compound 0.03 µM.
[22] abbreviates: second compound 1 µM, first compound 0.0949 µM.
Where [23] appears, read: second compound 1 µM, first compound 0.3 µM.
Setting [24] is: second compound 3.16 µM, first compound 0.000949 µM.
Where [25] appears, read: second compound 3.16 µM, first compound 0.003 µM.
The mark [26] stands for this setting: second compound 3.16 µM, first compound 0.00949 µM.
Where [27] appears, read: second compound 3.16 µM, first compound 0.03 µM.
The mark [28] stands for this setting: second compound 3.16 µM, first compound 0.0949 µM.
Where [29] appears, read: second compound 3.16 µM, first compound 0.3 µM.
Where [30] appears, read: second compound 10 µM, first compound 0.000949 µM.
The mark [31] stands for this setting: second compound 10 µM, first compound 0.003 µM.
Where [32] appears, read: second compound 10 µM, first compound 0.00949 µM.
[33] abbreviates: second compound 10 µM, first compound 0.03 µM.
Where [34] appears, read: second compound 10 µM, first compound 0.0949 µM.
Where [35] appears, read: second compound 10 µM, first compound 0.3 µM.
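Note: drug exposure lasted 7 days starting on day 3 after seeding.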
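Throughout, for viability, T/C: luminescence viability as percent of DMSO vehicle wells = 100%.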

Take `CCc1c2c(nc3ccc(O)cc13)-c1cc3c(c(=O)n1C2)COC(=O)[C@]3(O)CC` + NC1CCC(NC2CC2c2ccccc2)CC1: the IC50 under setting [1] was less than 0.949 nM; the IC50 under setting [2] is less than 0.949 nM; the IC50 under setting [3] is less than 0.949 nM; the IC50 under setting [4] was less than 0.949 nM; the IC50 under setting [5] is less than 0.949 nM. Besides, the viability, T/C reads like this: under setting [6], 21.1%; under setting [7], 16%; under setting [8], 11.9%; under setting [9], 9.64%; under setting [10], 6.14%; under setting [11], 2.74%. For the same molecule, the viability, T/C under setting [12] is 22.6%; the viability, T/C under setting [13] is 19.5%; the viability, T/C under setting [14] is 12.3%; the viability, T/C under setting [15] is 9.27%; the viability, T/C under setting [16] is 5.32%; the viability, T/C under setting [17] was 5.13%. Further, the viability, T/C was 23.6% under setting [18]; 17.3% under setting [19]; 13.2% under setting [20]; 8.94% under setting [21]; 7.12% under setting [22]; 2.09% under setting [23]. Further, the viability, T/C by setting is: under setting [24], 22.1%; under setting [25], 15.5%; under setting [26], 11.4%; under setting [27], 9.39%; under setting [28], 4.78%; under setting [29], 2.98%. Moreover, the viability, T/C reads like this: under setting [30], 20.7%; under setting [31], 12.2%; under setting [32], 8.28%; under setting [33], 8.25%; under setting [34], 4.8%; under setting [35], 1.43%.
As for `CCN(c1cc(-c2ccc(CN3CCOCC3)cc2)cc(C(=O)NCc2c(C)cc(C)[nH]c2=O)c1C)C1CCOCC1` + NC1CCC(NC2CC2c2ccccc2)CC1, the IC50 reads like this: under setting [1], more than 3000 nM; under setting [2], more than 3000 nM; under setting [3], more than 3000 nM; under setting [4], more than 3000 nM; under setting [5], more than 3000 nM. Also, the viability, T/C was 86.3% under setting [8]; 103% under setting [9]; 87% under setting [10]; 86.7% under setting [11]; 91.4% (second compound 0.1 µM, first compound 0.949 µM); 82.9% (second compound 0.1 µM, first compound 3 µM). In addition, the viability, T/C runs as follows: under setting [14], 85.3%; under setting [15], 95.9%; under setting [16], 96.2%; under setting [17], 91.4%; (second compound 0.316 µM, first compound 0.949 µM) 89.9%; (second compound 0.316 µM, first compound 3 µM) 91.1%. Also, the viability, T/C is 92.3% under setting [20]; 92.7% under setting [21]; 93.5% under setting [22]; 88.3% under setting [23]; 86.3% (second compound 1 µM, first compound 0.949 µM); 91.8% (second compound 1 µM, first compound 3 µM). Further, the viability, T/C was 91.3% under setting [26]; 90.5% under setting [27]; 83.3% under setting [28]; 87.6% under setting [29]; 82% (second compound 3.16 µM, first compound 0.949 µM); 95.9% (second compound 3.16 µM, first compound 3 µM). Further, the viability, T/C under setting [32] is 84.1%; the viability, T/C under setting [33] was 82.6%; the viability, T/C under setting [34] is 79.4%; the viability, T/C under setting [35] is 79.5%; the viability, T/C (second compound 10 µM, first compound 0.949 µM) was 82.7%; the viability, T/C (second compound 10 µM, first compound 3 µM) was 83.7%.
As to `Cn1ncnc1C1c2n[nH]c(=O)c3cc(F)cc(c23)NC1c1ccc(F)cc1` (centres undefined), the viability, T/C by setting is: (compound 0.000316 µM) 114% and 96.5%; (compound 0.001 µM) 89% and 83.3%; (compound 0.00316 µM) 95.8% and 84.2%; (compound 0.01 µM) 95.8% and 73.8%; (compound 0.0316 µM) 89.2% and 86.2%; (compound 0.1 µM) 81.8% and 86.8%. The IC50 (curve of compound) was more than 100 nM.
Turning to `Nc1ccn(C2OC(CO)C(O)C2(F)F)c(=O)n1` (centres undefined) + NC1CC1c1ccc(-c2cccc(O)c2)cc1, the IC50 is, setting by setting: under setting [1], 2.84 nM; under setting [2], 3.19 nM; under setting [3], 2.95 nM; under setting [4], 2.25 nM; under setting [5], 3.01 nM. Besides, the viability, T/C runs as follows: under setting [6], 84.7%; under setting [7], 46.3%; under setting [8], 33.9%; under setting [9], 25.2%; under setting [10], 22.6%; under setting [11], 18.3%. Further, the viability, T/C under setting [12] was 86.9%; the viability, T/C under setting [13] is 49%; the viability, T/C under setting [14] was 34.2%; the viability, T/C under setting [15] was 26.7%; the viability, T/C under setting [16] is 19.9%; the viability, T/C under setting [17] is 17.1%. Also, the viability, T/C was 76% under setting [18]; 48.5% under setting [19]; 36% under setting [20]; 25% under setting [21]; 20.4% under setting [22]; 20.6% under setting [23]. For the same molecule, the viability, T/C is, setting by setting: under setting [24], 76.8%; under setting [25], 36.9%; under setting [26], 33.3%; under setting [27], 25.1%; under setting [28], 17.8%; under setting [29], 18.8%. Further, the viability, T/C reads like this: under setting [30], 77.4%; under setting [31], 46.4%; under setting [32], 38%; under setting [33], 28%; under setting [34], 23.3%; under setting [35], 18.5%.
Regarding `O=C(C=Cc1cccc(S(=O)(=O)Nc2ccccc2)c1)NO`, the viability, T/C by setting is: (compound 0.00949 µM) 90.4% and 96.6%; (compound 0.03 µM) 104% and 108%; (compound 0.0949 µM) 82% and 112%; (compound 0.3 µM) 64.3% and 65.9%; (compound 0.949 µM) 12.3% and 17.6%; (compound 3 µM) 0.4% and 0.43%. In addition, the IC50 (curve of compound) was 399 nM and 444 nM.
